Entries after “also recorded” stand apart in the source; their conditions may differ.
Legend:
[1] = test system: Urinary retinol binding protein; assay: Urinary retinol-binding protein, marker of renal tubular damage; assay type: in vivo, human; settings: range 0.10–100.0
Experimental: In an attempt to understand further the pathogenesis of these biochemical toxicities, three patients were studied more intensively. Urinary retinol-binding protein (RBP), a marker of renal tubular damage was measured in conjunction with functional renal imaging (MAG3 renograms) to estimate renal blood flow pretreatment on days 3 and 14. […] This was associated with bilateral increases in renal parenchymal retention on day 3 on MAG3 scans, which reverted to normal by day 14 (see Figure 1). […] There were no consistent changes in urinary RBP in any of these patients (Table 3).

Cdk4 = settings: background statement, no reference given; cited from earlier work
human tumour xenograft = test system: human tumour xenograft; design: method as in Raynaud et al, 2005; settings: 500 mg kg^−1 p.o. b.i.d., mouse; ref Raynaud et al, 2005; cited from earlier work
[2] = test system: Retinoblastoma phosphorylation and cyclin D1 levels in peripheral blood mononuclear cells; assay: Pharmacodynamics in peripheral blood mononuclear cells (western blot); assay type: in vivo, human; settings: peripheral blood mononuclear cells of patients, first cycle
Experimental: Whole blood was collected from patients at selected time points into lithium–heparin Vacutainer® tubes (Vacutainer, BD, Franklin Lakes, NJ, USA). Each tube was inverted several times to ensure thorough mixing and then mixed with sterile 0.9% saline at a ratio of 1:1. This was then layered over ficol (Lymphoprep® Nycomed, Oslo, Norway) and centrifuged at 1200 r.p.m. (400 g equivalent) at 18°C for 30 min. The resulting mononuclear cell layer was then removed and resuspended in 0.9% NaCl. Cell pellets were obtained by centrifugation (600 g) and flash frozen in liquid nitrogen. Mononuclear cells were then stored at −70°C in labelled cryovials until further analysis.
Cell pellets were treated with lysis buffer (50 mM Tris–HCl, 150 mM NaCl, pH 7.5, 1% NP40, 2 mM PMSF, 10 μg ml^−1 aprotinin, 10 μg ml^−1 leupeptin, 1 mM activated sodium orthovanadate, 1 mM sodium fluoride and 10 mM β-glycerophosphate) for 30 min on ice. Samples (20–100 μg of protein) were heat-denatured in Laemmli sample buffer (10% glycerol, 5% β-mercaptoethanol, 2% sodium dodecyl sulphate (SDS), 62.5 mM Tris (pH 6.8), 0.05% bromphenol blue, final concentrations) and separated by SDS—polyacrylamide gel electrophoresis (PAGE) using pre-cast 10 or 15-well 20 or 10% Tris–glycine polyacrylamide gels (Invitrogen, Netherlands). […]

malignant solid tumour = assay: Antitumour activity in patients (RECIST); assay type: in vivo, human; settings: for Patients with stable disease after course 2: progressed by course 4
Experimental: (§1) Before commencing treatment, a complete medical history was taken and physical examination was performed. The following pretreatment baseline examinations were performed within 4 weeks of starting treatment: full blood count, including white blood cell differential; reticulocyte count, haptoglobin, prothrombin time and Coombs test; serum biochemistry, including sodium, potassium, urea, creatinine, calcium, phosphorus, creatine kinase and isoenzymes, total protein, albumin, bilirubin (direct and total), alkaline phosphatase (ALP), alanine aminotransferase (ALT), aspartate aminotransferase (AST), γ-glutamyl transferase (γGT), lactate dehydrogenase and uric acid; urinalysis; pregnancy test, electrocardiogram and a chest X-ray. Weekly evaluations included history, physical examination, toxicity assessment according to the CTC criteria version 2.0 and full blood count and serum chemistries. Radiographic assessment of tumour was performed within 3 weeks before the patient starting treatment and after every two cycles, according to standard RECIST methodology. Patients were taken off protocol upon disease progression, unacceptable toxicity, investigator discretion, serious violation of protocol or at their own request, and were followed for 28 days after the last administration of the study drug.

[3] = Phase I toxicity (NCI CTC v2.0) in patients; assay type: in vivo, human; settings: for No. with grade 3 & 4 ALT increased / No. with grade 3 & 4 AST increased / No. with grade 3 & 4 Alk Phos increase / No. with grade 3 & 4 Anorexia / No. with grade 3 & 4 Bilirubin increase / No. with grade 3 & 4 CKMB increase / No. with grade 3 & 4 Fatigue / No. with grade 3 & 4 Hyperglycaemia / No. with grade 3 & 4 Hypokalemia / No. with grade 3 & 4 Hyponatraemia / No. with grade 3 & 4 Hypotension / No. with grade 3 & 4 Lymphopenia / No. with grade 3 & 4 Rash / No. with grade 3 & 4 adverse events / No. with grade 3 & 4 γ GT increase: first course; for Patients with derangements in liver biochemistry (γGT and ALP elevations): 7-day treatment period
Description: Dose-limiting toxicity (DLT) was defined as drug-related toxicity in the first cycle, including grade 4 neutropenia for 7 days or more, neutropenic fever, platelet count <25 × 10^9 l^−1 and/or non-haematological toxicity⩾grade 3. This definition excluded nausea and vomiting subsequently responding to antiemetic therapy and reversible grade 3 increases in liver transaminases. The maximum tolerated dose (MTD) was defined as a dose below which DLT occurred in more than 30% of the patients. Toxicities were evaluated according to the National Cancer Institute Common Toxicity Criteria, version 2.0.
as §1
In addition, more intensive blood chemistry testing was performed on days 1, 3, 5 and 7.

[4] = same patient, 800 mg b.i.d., course 2

CC[C@H](CO)Nc1nc(NCc2ccccc2)c2ncn(C(C)C)c2n1 [Seliciclib]
Urinary retinol binding protein ([1]; Patient 20, Day 3, 800 mg b.i.d.): 59.2 mg/mol creatinine | Urinary retinol binding protein ([1]; Patient 20, Day 14, 800 mg b.i.d.): 20.8 mg/mol creatinine | Urinary retinol binding protein ([1]; Patient 21, Day 3, 800 mg b.i.d.): 44.7 mg/mol creatinine | Urinary retinol binding protein ([1]; Patient 21, Day 14, 800 mg b.i.d.): 25.7 mg/mol creatinine | Urinary retinol binding protein ([1]; Patient 22, Day 3, 800 mg b.i.d.): 7.9 mg/mol creatinine | Urinary retinol binding protein ([1]; Patient 22, Day 14, 800 mg b.i.d.): 40.1 mg/mol creatinine | Inhibition of Cdk4 (Cdk4): only a weak inhibitor | Effect on growth of a human tumour xenograft (human tumour xenograft): significant growth delay | Alterations of retinoblastoma phosphorylation and cyclin D1 levels [2]: not demonstrated; also recorded: No reliably detectable alterations | Patients with stable disease after course 2 (malignant solid tumour; 100 mg b.i.d.): Two of three | Patients with stable disease after course 2 (malignant solid tumour; 200 mg b.i.d.): two of six | Patients with stable disease after course 2 (malignant solid tumour; 800 mg b.i.d.): three of 12 | Objective tumour responses (malignant solid tumour; all dose levels): No objective tumour responses | Patients with disease stabilisation (malignant solid tumour; all dose levels, 21 treated patients): eight | Duration of disease stabilisation (malignant solid tumour; one patient with ovarian cancer, six courses): 18 weeks | No. with grade 3 & 4 ALT increased ([3]; 100 mg b.i.d, 3 subjects): 0 | No. with grade 3 & 4 AST increased ([3]; 100 mg b.i.d, 3 subjects): 0 | No. with grade 3 & 4 Alk Phos increase ([3]; 100 mg b.i.d, 3 subjects): 0 | No. with grade 3 & 4 Anorexia ([3]; 100 mg b.i.d, 3 subjects): 0 | No. with grade 3 & 4 Bilirubin increase ([3]; 100 mg b.i.d, 3 subjects): 0 | No. with grade 3 & 4 CKMB increase ([3]; 100 mg b.i.d, 3 subjects): 0 | No. with grade 3 & 4 Fatigue ([3]; 100 mg b.i.d, 3 subjects): 0 | No. with grade 3 & 4 Hyperglycaemia ([3]; 100 mg b.i.d, 3 subjects): 0 | No. with grade 3 & 4 Hypokalemia ([3]; 100 mg b.i.d, 3 subjects): 0 | No. with grade 3 & 4 Hyponatraemia ([3]; 100 mg b.i.d, 3 subjects): 0 | No. with grade 3 & 4 Hypotension ([3]; 100 mg b.i.d, 3 subjects): 0 | No. with grade 3 & 4 Lymphopenia ([3]; 100 mg b.i.d, 3 subjects): 0 | No. with grade 3 & 4 Rash ([3]; 100 mg b.i.d, 3 subjects): 0 | No. with grade 3 & 4 adverse events ([3]; 100 mg b.i.d, 3 subjects): 0 | No. with grade 3 & 4 γ GT increase ([3]; 100 mg b.i.d, 3 subjects): 0 | Toxicity at the 100 mg dose level ([3]; 100 mg b.i.d., three patients): No significant toxicity | No. with grade 3 & 4 ALT increased ([3]; 200 mg b.i.d, 6 subjects): 1 | No. with grade 3 & 4 AST increased ([3]; 200 mg b.i.d, 6 subjects): 1 | No. with grade 3 & 4 Alk Phos increase ([3]; 200 mg b.i.d, 6 subjects): 1 | No. with grade 3 & 4 Anorexia ([3]; 200 mg b.i.d, 6 subjects): 0 | No. with grade 3 & 4 Bilirubin increase ([3]; 200 mg b.i.d, 6 subjects): 1 | No. with grade 3 & 4 CKMB increase ([3]; 200 mg b.i.d, 6 subjects): 1 | No. with grade 3 & 4 Fatigue ([3]; 200 mg b.i.d, 6 subjects): 0 | No. with grade 3 & 4 Hyperglycaemia ([3]; 200 mg b.i.d, 6 subjects): 0 | No. with grade 3 & 4 Hypokalemia ([3]; 200 mg b.i.d, 6 subjects): 0 | No. with grade 3 & 4 Hyponatraemia ([3]; 200 mg b.i.d, 6 subjects): 0 | No. with grade 3 & 4 Hypotension ([3]; 200 mg b.i.d, 6 subjects): 0 | No. with grade 3 & 4 Lymphopenia ([3]; 200 mg b.i.d, 6 subjects): 0 | No. with grade 3 & 4 Rash ([3]; 200 mg b.i.d, 6 subjects): 0 | No. with grade 3 & 4 adverse events ([3]; 200 mg b.i.d, 6 subjects): 2 | No. with grade 3 & 4 γ GT increase ([3]; 200 mg b.i.d, 6 subjects): 1 | Patients with derangements in liver biochemistry (γGT and ALP elevations) ([3]; 200 mg b.i.d.): 4 out of 6 | No. with grade 3 & 4 ALT increased ([3]; 800 mg b.i.d, 12 subjects): 0 | No. with grade 3 & 4 AST increased ([3]; 800 mg b.i.d, 12 subjects): 0 | No. with grade 3 & 4 Alk Phos increase ([3]; 800 mg b.i.d, 12 subjects): 0 | No. with grade 3 & 4 Anorexia ([3]; 800 mg b.i.d, 12 subjects): 1 | No. with grade 3 & 4 Bilirubin increase ([3]; 800 mg b.i.d, 12 subjects): 0 | No. with grade 3 & 4 CKMB increase ([3]; 800 mg b.i.d, 12 subjects): 0 | No. with grade 3 & 4 Fatigue ([3]; 800 mg b.i.d, 12 subjects): 1 | No. with grade 3 & 4 Hyperglycaemia ([3]; 800 mg b.i.d, 12 subjects): 1 | No. with grade 3 & 4 Hypokalemia ([3]; 800 mg b.i.d, 12 subjects): 3 | No. with grade 3 & 4 Hyponatraemia ([3]; 800 mg b.i.d, 12 subjects): 1 | No. with grade 3 & 4 Hypotension ([3]; 800 mg b.i.d, 12 subjects): 1 | No. with grade 3 & 4 Lymphopenia ([3]; 800 mg b.i.d, 12 subjects): 1 | No. with grade 3 & 4 Rash ([3]; 800 mg b.i.d, 12 subjects): 1 | No. with grade 3 & 4 adverse events ([3]; 800 mg b.i.d, 12 subjects): 7 | No. with grade 3 & 4 γ GT increase ([3]; 800 mg b.i.d, 12 subjects): 3 | Patients with hypokalaemia (<3.0 mmol l^−1) ([3]; 800 mg b.i.d.): five of 12 | Patients with seliciclib-induced hyperglycaemia ([3]; 800 mg b.i.d.): five and five of 12 | Dose-limiting toxicities ([3]; 800 mg b.i.d. p.o., 7 days every 21 days): grade 3 fatigue, grade 3 skin rash, grade 3 hyponatraemia and grade 4 hypokalaemia | Patients with derangements in liver biochemistry (γGT and ALP elevations) ([3]; 800 mg b.i.d.): 10 out of 12 | Patients with grade 1 hypokalaemia ([3]; 800 mg b.i.d., 12 patients): two | Patients with grade 3 hypokalaemia ([3]; 800 mg b.i.d., 12 patients): two | Patients with grade 4 hypokalaemia ([3]; 800 mg b.i.d., 12 patients): one | Patients who experienced nausea ([3]; 800 mg dose level, not dose-limiting): 11 of the 12 | Overall haematological toxicity ([3]; all dose levels): mild | Patients with seliciclib-related DLTs ([3]; final six patients treated at 800 mg): Four of the final six | Serum potassium (lowest level) ([3]; one patient, 800 mg b.i.d., day 7 of course 1): 2.2 mmol/L | Blood pressure (hypotension) [3, 4]: 82/52 | Serum potassium nadir [3, 4]: 2.5 mmol/L | Serum sodium (hyponatraemia) [3, 4]: 127 mmol/L | Creatinine ([3]; same patient, 800 mg b.i.d., course 2, normal range <110): 130 µmol/L
